Structures are written as SMILES.

Assay [1] deals with PC-3 (human prostate cancer cells). Description: MTT assay for cell viability, PC-3. The assay is classed as cell-based. The settings on record: Homo sapiens, 48 h. As for the experimental part:
(§1) The human cancer cell lines e.g. HepG2 (hepatocellular carcinoma, ATCC® HB-8065™), PC-3 (human prostate cancer cells, ATCC® CRL-1435™), MCF-7 (breast adenocarcinoma, ATCC® […]), and mouse embryo fibroblasts (NIH/3T3, ATCC® CRL-1658™), used in the present study were obtained from the ATCC (American Type Culture Collection, USA and maintained in RPMI 1640 (Roswell Park Memorial Institute, Merck) with 10% FBS (Merck), supplemented with 1% antibiotic and antimycotic solution (Gibco, USA) at 37° C. in a humidified incubator with 5% CO2. All stock solutions of the compounds were prepared in cell culture grade DMSO (dimethyl sulfoxide) and stored at −20° C. Compounds were diluted in culture media prior to use in experiments. Annexin V-FITC apoptosis detection kits were purchased from Calbiochem. MTT dye was procured from Sigma-Aldrich. All the flow cytometry experiments were performed using a FACScan (Becton Dickinson, Mountain View, Calif.) flow cytometer, equipped with a single 488 nm argon laser.
(§2) Cell viability was assessed by MTT assay, which is based on the reduction of MTT by mitochondrial dehydrogenases of viable cells to form a purple formazan product. Briefly, cells (5-6×10^3/well) were plated in 96 well plates. After incubating overnight, the cells were treated with […] different concentrations (100, 50, 20, 10, 5, 2.5, 1.25 μM) in triplicates with the cationic lipidated cordiarimide and intermediates for 48 h. Subsequently, 10 μL of MTT (10 mg/mL) was added to each well and incubated for 3 h. The MTT formazan formed by viable cells was dissolved in 100 μL of DMSO and shaken for 10 min. The absorbance was measured on an ELISA reader. Each test was repeated at least three times. The concentration of the compound which gives the 50% growth inhibition value corresponding to IC50, was calculated using GraphPad prism 5 software. In the present invention we have screened 26 lipidated cordiarimides and the results are described in table 1.

For assay [2], the system named is HepG2 (hepatocellular carcinoma). Kind of assay: MTT assay for cell viability, HepG2. The assay is classed as cell-based, human. The settings on record: Homo sapiens, HepG2, 48 h. As for the experimental part: as §1, §2
For orientation: Tetrazolium assays rely on reduction of a dye to a coloured formazan, in cell work by metabolically active cells.

Assay [3] relates to mouse embryo fibroblasts (NIH/3T3). Kind of assay: MTT assay for cell viability, NIH/3T3. The assay is classed as cell-based. The settings on record: NIH3T3, 48 h. How it is done: as §1, §2
Assay [4] concerns MCF-7 (breast adenocarcinoma). Description: MTT assay for cell viability, MCF-7. The assay is classed as cell-based, human. The settings on record: Homo sapiens, MCF7, 48 h. As for the experimental part:
as §1, §2

Broadly, the IC50 is the midpoint of a concentration-inhibition curve. Low readings indicate higher potency, high ones lower potency. For the compound `CCCCCCCCCCCCN(CCCCCCCCCCCC)CC(=O)NC1CCC(=O)N(CC(=O)c2ccccc2)C1=O` (centres unmarked) [Compound 7k, N-[2,6-Dioxo-1-(oxo-2-phenyl-ethyl)-piperidine-3-yl]-2-didodecylamino-acetamide], the IC50 in assay [1], in assay [2], in assay [3] and in assay [4] was over 20 µM throughout.
For the compound `CCC[N+](C)(CCC)CC(=O)NC1CCC(=O)N(CC(=O)c2ccccc2)C1=O` (centres unmarked) [Compound 8b, Dipropylamm{[2,6-Dioxo-1-(2-oxo-2-phenyl-ethyl)-piperidin-3-ylcarbamoyl]-methyl}-methyl-ammonium iodide], the IC50 in assay [1], in assay [2], in assay [3] and in assay [4] was over 20 µM throughout.
Consider `CCCCCN(CCCCC)CC(=O)NC1CCC(=O)N(CC(=O)c2ccccc2)C1=O` (centres unmarked) [Compound 7d, 2-Dipentylamino-N-[2,6-dioxo-1-(2-oxo-2-phenyl-ethyl)-piperidin-3-yl]-acetamide], for which the IC50 in assay [1] is over 20 µM; in assay [2], 12.5 µM; in assay [3], over 20 µM; in assay [4] it was over 20 µM.
`CCCCCCCCCN(CCCCCCCCC)CC(=O)NC1CCC(=O)N(CC(=O)c2ccccc2)C1=O` (centres unmarked) [Compound 7h, 2Dinonylamino-N-[2,6-dioxo-1-(2-oxo-2-phenyl-ethyl)-piperidin-3-yl]-acetamide]: the IC50 was over 20 µM in assay [1], over 20 µM in assay [2], 10.7 µM in assay [3] and 19.9 µM in assay [4].
For `CCCCCCCCCCN(CCCCCCCCCC)CC(=O)NC1CCC(=O)N(CC(=O)c2ccccc2)C1=O` (centres unmarked) [Compound 7i, 2-(Bis-decyl-amino)-N-[2,6-dioxo-1-(2-oxo-2-phenyl-ethyl)-piperidin-3-yl]acetamide], the IC50 is over 20 µM in assay [1], over 20 µM in assay [2], over 20 µM in assay [3] and 14.2 µM in assay [4].
For `CCCCCCCCCCCN(CCCCCCCCCCC)CC(=O)NC1CCC(=O)N(CC(=O)c2ccccc2)C1=O` (centres unmarked) [Compound 7j, N-[2,6-Dioxo-1-(oxo-2-phenyl-ethyl)-piperidine-3-yl]-2-diundecylamino-acetamide], the IC50 in assay [1] is 17.4 µM; in assay [2], over 20 µM; in assay [3], over 20 µM; in assay [4], over 20 µM.
In the case of `CCCCCCC[N+](C)(CCCCCCC)CC(=O)NC1CCC(=O)N(CC(=O)c2ccccc2)C1=O` (centres unmarked) [Compound 8f, {[2,6-Dioxo-1-(2-oxo-2-phenyl-ethyl)-piperidin-3-ylcarbamoyl]-methyl}-Diheptyl-methyl-ammonium iodide], the IC50 in assay [1] was over 20 µM; in assay [2], 3.3 µM; in assay [3], over 20 µM; in assay [4] it was over 20 µM.
For the compound `CCCC[N+](C)(CCCC)CC(=O)NC1CCC(=O)N(CC(=O)c2ccccc2)C1=O` (centres unmarked) [Compound 8c, Dibutyl-{[2,6-dioxo-1-(2-oxo-2-phenyl-ethyl)-piperidin-3-ylcarbamoyl]-methyl}-methyl-ammonium iodide], the IC50 in assay [1], in assay [2], in assay [3] and in assay [4] was over 20 µM each time.
Turning to `CCCCN(CCCC)CC(=O)NC1CCC(=O)N(CC(=O)c2ccccc2)C1=O` (centres unmarked) [Compound 7c, 2-Dibutylamino-N-[2,6-dioxo-1-(2-oxo-2-phenyl-ethyl)-piperidin-3-yl]-acetamide], the IC50 in assay [1], in assay [2], in assay [3] and in assay [4] was over 20 µM each time.
For `CCCCCCCCN(CCCCCCCC)CC(=O)NC1CCC(=O)N(CC(=O)c2ccccc2)C1=O` (centres unmarked) [Compound 7g, 2-Dioctylamino-N-[2,6-dioxo-1-(2-oxo-2-phenyl-ethyl)-piperidin-3-yl]-acetamide], the IC50 in assay [1] was over 20 µM; in assay [2], 11.6 µM; in assay [3], 7.18 µM; in assay [4] it was 10.3 µM.
With `CCCCCCCCCCCCCN(CCCCCCCCCCCCC)CC(=O)NC1CCC(=O)N(CC(=O)c2ccccc2)C1=O` (centres unmarked) [Compound 7l, N-[2,6-Dioxo-1-(oxo-2-phenyl-ethyl)-piperidine-3-yl]-2-ditridecylamino-acetamide], the IC50 in assay [1], in assay [2], in assay [3] and in assay [4] was over 20 µM in each case.
With `CCCCC[N+](C)(CCCCC)CC(=O)NC1CCC(=O)N(CC(=O)c2ccccc2)C1=O` (centres unmarked) [Compound 8d, {[2,6-Dioxo-1-(2-oxo-2-phenyl-ethyl)-piperidin-3-ylcarbamoyl]-methyl}-Methyl-dipentyl-ammonium iodide], the IC50 in assay [1], in assay [2], in assay [3] and in assay [4] was over 20 µM throughout.
As to `CCCCCCCN(CCCCCCC)CC(=O)NC1CCC(=O)N(CC(=O)c2ccccc2)C1=O` (centres unmarked) [Compound 7f, 2-Diheptylamino-N-[2,6-dioxo-1-(2-oxo-2-phenyl-ethyl)-piperidin-3-yl]-acetamide], the IC50 is over 20 µM in assay [1], 7.81 µM in assay [2], 8.73 µM in assay [3] and 9.33 µM in assay [4].
`CCCCCCCCCCCCCCN(CCCCCCCCCCCCCC)CC(=O)NC1CCC(=O)N(CC(=O)c2ccccc2)C1=O` (centres unmarked) [Compound 7m, N-[2,6-Dioxo-1-(oxo-2-phenyl-ethyl)-piperidine-3-yl]-2-ditetradecylamino-acetamide]: the IC50 in assay [1], in assay [2], in assay [3] and in assay [4] was over 20 µM in each case.
`CCCN(CCC)CC(=O)NC1CCC(=O)N(CC(=O)c2ccccc2)C1=O` (centres unmarked) [Compound 7b, 2-Dipropylamino-N-[2,6-dioxo-1-(2-oxo-2-phenyl-ethyl)-piperidin-3-yl]acetamide]: the concentration for half-maximal inhibition (IC50) in assay [1], in assay [2], in assay [3] and in assay [4] was over 20 µM each time.
On to `CCCCCCCCC[N+](C)(CCCCCCCCC)CC(=O)NC1CCC(=O)N(CC(=O)c2ccccc2)C1=O` (centres unmarked) [Compound 8h, {[2,6-Dioxo-1-(2-oxo-2-phenyl-ethyl)-piperidin-3-ylcarbamoyl]-methyl}-Methyl-dinonyl-ammonium iodide], for which the IC50 in assay [1] was found to be 8.75 µM; in assay [2], 3.26 µM; in assay [3] it was 2.74 µM; in assay [4], 6.45 µM.
Turning to `CC[N+](C)(CC)CC(=O)NC1CCC(=O)N(CC(=O)c2ccccc2)C1=O` (centres unmarked) [Compound 8a, {[2,6-Dioxo-1-(2-oxo-2-phenyl-ethyl)-piperidin-3-ylcarbamoyl]-methyl}-Diethyl-methyl-ammonium iodide], the IC50 in assay [1], in assay [2], in assay [3] and in assay [4] was over 20 µM in each case.
Take `CCCCCCN(CCCCCC)CC(=O)NC1CCC(=O)N(CC(=O)c2ccccc2)C1=O` (centres unmarked) [Compound 7e, 2-Dihexylamino-N-[2,6-dioxo-1-(2-oxo-2-phenyl-ethyl)-piperidin-3-yl]-acetamide]: the IC50 was over 20 µM in assay [1], 5.7 µM in assay [2], 3.74 µM in assay [3] and 3.85 µM in assay [4].
With `CCCCCC[N+](C)(CCCCCC)CC(=O)NC1CCC(=O)N(CC(=O)c2ccccc2)C1=O` (centres unmarked) [Compound 8e, {[2,6-Dioxo-1-(2-oxo-2-phenyl-ethyl)-piperidin-3-ylcarbamoyl]-methyl}-Dihexyl-methyl-ammonium iodide], the IC50 in assay [1], in assay [2], in assay [3] and in assay [4] was over 20 µM in each case.
In the case of `CCN(CC)CC(=O)NC1CCC(=O)N(CC(=O)c2ccccc2)C1=O` (centres unmarked) [Compound 7a, 2-Diethylamino-N-[2,6-dioxo-1-(2-oxo-2-phenyl-ethyl)-piperidin-3-yl]-acetamide], the IC50 in assay [1], in assay [2], in assay [3] and in assay [4] was over 20 µM in each case.

The values above are taken from US10266564B2, “Cationic lipid cordiarimide hybrid compounds and a process for preparation thereof” (COUNCIL OF SCIENTIFIC & INDUSTRIAL RESEARCH, priority 2014, dated 2019).
